According to US6596734B1, “Tetrahydroisoquinoline compounds for use as β3-adrenoreceptor agonists” (Molecular Design International, Inc., priority 2001, dated 2003):
Structures can show the parent of a compound that is named as a salt.

Legend:
human β3-adrenoreceptor = target: T1, human β3-adrenoreceptor (Homo sapiens, UniProt P13945); experiment: cAMP radioimmunoassay in CHO cells expressing human β3-adrenoreceptor; assay type: cell-based; details: for EC50: concentration giving 50% of the drug's maximum cAMP response, na = not active at highest concentration used, read-out: h-β3 cAMP EC50; for Emax: maximal response relative to standard reference agonist (isoproterenol = 100%), na = not active, read-out: h-β3 cAMP Max %
T1 construct: expressed in transfected cells; host or cells: CHO cells
Experimental: (§1) Chinese Hamster Ovary (CHO) cells expressing either human β1-, β2-, or β3-adrenoreceptor subtypes were used. Varying concentrations of each compound were added to the incubated cells and the cyclic AMP (cAMP) generated within the cells was extracted, and determined using a radioimmunoassay. Effective concentration-50 (EC-50) values were measured as the concentration (in nanomolar) of each drug that gave 50% of its maximum cAMP response. The maximal response (Max %) of each tested drug is expressed as a ratio of the drug response to that of a standard reference agonist (e.g., isoproterenol (Max %=100%)). If a compound has no activity for increasing cAMP at the highest concentration used, it is designated as “not active” or “na” in Table I below, which summarizes the testing results. See Konkar et al., Journal of Pharmacology and Experimental Therapeutics 291:875-883 (1999).

human β1-adrenoreceptor = target: T2, human β1-adrenoreceptor (Homo sapiens, UniProt P08588); experiment: cAMP radioimmunoassay in CHO cells expressing human β1-adrenoreceptor; assay type: cell-based; details: maximal response relative to standard reference agonist (isoproterenol = 100%), na = not active, read-out: h-β1 cAMP Max %
T2 construct: expressed in transfected cells; host or cells: CHO cells
Experimental: as §1

human β2-adrenoreceptor = target: T3, human β2-adrenoreceptor (Homo sapiens, UniProt P07550); experiment: cAMP radioimmunoassay in CHO cells expressing human β2-adrenoreceptor; assay type: cell-based; details: maximal response relative to standard reference agonist (isoproterenol = 100%), na = not active, read-out: h-β2 cAMP Max %
T3 construct: expressed in transfected cells; host or cells: CHO cells
Experimental: as §1

T1 sequence (P13945 whole entry): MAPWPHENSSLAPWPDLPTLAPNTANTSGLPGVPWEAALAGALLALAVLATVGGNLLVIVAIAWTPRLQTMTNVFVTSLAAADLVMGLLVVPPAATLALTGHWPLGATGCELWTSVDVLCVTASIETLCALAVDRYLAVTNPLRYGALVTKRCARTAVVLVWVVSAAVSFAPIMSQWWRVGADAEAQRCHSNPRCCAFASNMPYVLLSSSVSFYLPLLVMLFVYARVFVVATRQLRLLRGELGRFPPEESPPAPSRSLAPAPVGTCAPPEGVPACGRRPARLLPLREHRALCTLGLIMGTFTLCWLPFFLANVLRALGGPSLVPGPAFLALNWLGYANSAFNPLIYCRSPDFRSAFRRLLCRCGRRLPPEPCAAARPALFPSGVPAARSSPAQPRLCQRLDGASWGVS
T2 sequence (P08588 whole entry): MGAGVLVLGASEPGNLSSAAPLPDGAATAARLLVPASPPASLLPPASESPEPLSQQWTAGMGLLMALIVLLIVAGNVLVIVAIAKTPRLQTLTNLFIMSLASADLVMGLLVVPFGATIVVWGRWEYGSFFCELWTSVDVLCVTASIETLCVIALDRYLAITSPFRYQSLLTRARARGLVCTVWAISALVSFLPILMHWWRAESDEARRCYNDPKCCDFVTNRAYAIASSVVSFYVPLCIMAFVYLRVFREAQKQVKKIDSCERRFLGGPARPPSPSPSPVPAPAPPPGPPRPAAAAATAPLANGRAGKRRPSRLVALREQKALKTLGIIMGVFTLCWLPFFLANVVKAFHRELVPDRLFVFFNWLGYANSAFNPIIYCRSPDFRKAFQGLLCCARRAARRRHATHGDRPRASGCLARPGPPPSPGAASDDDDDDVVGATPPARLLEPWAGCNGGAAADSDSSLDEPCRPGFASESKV
T3 sequence (P07550 whole entry): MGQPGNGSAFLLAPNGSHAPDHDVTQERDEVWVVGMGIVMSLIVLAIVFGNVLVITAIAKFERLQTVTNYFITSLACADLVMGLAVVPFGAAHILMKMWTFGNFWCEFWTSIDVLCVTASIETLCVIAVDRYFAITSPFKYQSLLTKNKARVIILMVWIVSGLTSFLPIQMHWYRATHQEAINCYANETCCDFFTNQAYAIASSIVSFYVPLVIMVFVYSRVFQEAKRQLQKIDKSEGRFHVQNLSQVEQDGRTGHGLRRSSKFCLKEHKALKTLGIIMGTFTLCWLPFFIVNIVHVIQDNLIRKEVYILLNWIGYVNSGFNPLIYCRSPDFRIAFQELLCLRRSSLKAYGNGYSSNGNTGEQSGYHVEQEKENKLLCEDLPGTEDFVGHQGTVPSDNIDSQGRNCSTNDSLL

EC50 (human β3-adrenoreceptor) [nM]	Emax (human β3-adrenoreceptor) [%]	Emax (human β1-adrenoreceptor) [%]	Emax (human β2-adrenoreceptor) [%]	melting point	SMILES
8.09	88.3				COc1ccc(S(=O)(=O)Nc2cc3c(cc2O)CCNC3Cc2cc(Br)c(OC)c(Br)c2)cc1 (centres unmarked)
80.3	65.7				COc1c(Br)cc(CC2NCCc3cc(O)c(NS(=O)(=O)c4ccc(OC(F)(F)F)cc4)cc32)cc1Br (centres unmarked)
118	76.9	10.2	15.4		COc1ccc(CC2NCCc3cc(O)c(NS(C)(=O)=O)cc32)cc1OC (centres unmarked)
20.9	92.2				COc1c(Br)cc(CC2NCCc3cc(O)c(NS(=O)(=O)Cc4ccccc4)cc32)cc1Br (centres unmarked)
	2.24	12.6	10.8		CS(=O)(=O)Nc1cc2c(cc1N)CCNC2Cc1ccc(Cl)c(Cl)c1 (centres unmarked)
35.3	88.2	13.1	21.4		COc1c(Br)cc(CC2NCCc3cc(O)c(NS(=O)(=O)c4ccccc4)cc32)cc1Br (centres unmarked)
2.9	91	5	8		COc1c(I)cc(CC2NCCc3cc(O)c(NS(=O)(=O)c4ccc(C)cc4)cc32)cc1I (centres unmarked)
	8.7	11	17.2		CCOC(=O)Nc1cc2c(cc1NS(C)(=O)=O)CCNC2Cc1cc(Br)c(OC)c(Br)c1 (centres unmarked)
38.8	66.6				CS(=O)(=O)Nc1cc2c(cc1O)CCNC2Cc1cc(F)cc(F)c1 (centres unmarked)
24.4	78.3				CS(=O)(=O)Nc1cc2c(cc1O)CCNC2Cc1ccc(F)c(F)c1 (centres unmarked)
29.2	83.3	13	16.6		COc1c(Br)cc(CC2NCCc3cc(O)c(NS(=O)(=O)c4ccc(C(F)(F)F)cc4)cc32)cc1Br (centres unmarked)
23.1	96.6				COc1c(Br)cc(CC2NCCc3cc(O)c(NS(=O)(=O)/C=C/c4ccccc4)cc32)cc1Br (centres unmarked)
5.22	90.4	8.6	13.5		COc1c(Br)cc(CC2NCCc3cc(O)c(NS(=O)(=O)c4ccc(F)cc4)cc32)cc1Br (centres unmarked)
	8.7	12.1	5.8		COc1c(Br)cc(CC2NCCc3cc(O)c(N(S(=O)(=O)c4ccc(F)cc4)S(=O)(=O)c4ccc(F)cc4)cc32)cc1Br (centres unmarked)
	24				COc1ccc(CC2NCCc3cc(O)c(NS(C)(=O)=O)cc32)cc1 (centres unmarked)
				226 to 228 °C (dec.)	COc1ccc(S(=O)(=O)Nc2cc3c(cc2O)CCNC3Cc2cc(Br)c(OC)c(Br)c2)cc1 (centres unmarked) (as salt: hydrochloride) [Example 4, N-[1-(3,5-dibromo-4-methoxy-benzyl)-6-hydroxy-1,2,3,4-tetrahydro-isoquinolin-7-yl]-4-methoxy-benzenesulfonamide hydrochloride]
8.46	97.6	18.1	8		COc1c(Br)cc(CC2NCCc3cc(O)c(NS(=O)(=O)c4ccc(C)cc4)cc32)cc1Br (centres unmarked)
9.91	92				CS(=O)(=O)Nc1cc2c(cc1O)CCNC2Cc1ccc(Cl)c(Cl)c1 (centres unmarked)
3	98	5	5		COc1c(I)cc(CC2NCCc3cc(O)c(NS(C)(=O)=O)cc32)cc1I (centres unmarked)
1.51	102	8.4			CCS(=O)(=O)Nc1cc2c(cc1O)CCNC2Cc1cc(Br)c(OC)c(Br)c1 (centres unmarked)
	39.3	16.2	24.1		COc1c(Br)cc(CC2c3cc(NS(C)(=O)=O)c(O)cc3CCN2C)cc1Br (centres unmarked)
